In patent US9737260B2, “Methods for determining total body skeletal muscle mass” (GLAXOSMITHKLINE LLC, priority 2011, dated 2017):

Key:
[1] = rat, oral dose of 0.475 mg D3-creatine per rat
[2] = Dexamethasone-induced skeletal muscle atrophy in rats: lean body mass by QMR and creatine pool size by D3-creatine dilution; conditions: 22 week-old rats, once daily subcutaneous for 2 weeks; P<0.001 vs vehicle (459±45 g)

| Structure (SMILES) | absorption of oral dose [1] | D3-creatine tracer dose available to equilibrate with the body creatine pool ([1]; minimal urinary spillage) [%] | lean body mass (LBM) [2] [g] |
| --- | --- | --- | --- |
| [2H]C([2H])([2H])N(CC(=O)O)C(=N)N [D3-creatine] | rapidly and completely absorbed | > 99 | – |
| C[C@@H]1C[C@H]2[C@@H]3CCC4=CC(=O)C=C[C@]4(C)[C@@]3(F)[C@@H](O)C[C@]2(C)[C@@]1(O)C(=O)CO [dexamethasone] | – | – | 353 ± 32 |
